Laboratory results taken from patent publication US10499642B2, “Isoxazoline-substituted benzamides and analogues as insecticides” (SYNGENTA PARTICIPATIONS AG, priority 2015, dated 2019).
Read-outs that look alike come from different tables or passages of the source.

How the values were obtained:
Type in all cases: in vivo
[1] = system: Spodoptera littoralis; assay: Spodoptera littoralis (Egyptian cotton leaf worm) cotton leaf disc test; conditions: foliar, 72 h, read-out: control (at least one of mortality, anti-feedant effect, and growth inhibition)
Summary of the method: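 Cotton leaf discs on agar were sprayed with aqueous dilutions of 10′000 ppm DMSO stocks, dried and infested with five L1 larvae. Mortality, anti-feedant effect and growth inhibition were scored against untreated samples 3 days after infestation. Control = any of these higher than untreated.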

[2] = system: Plutella xylostella; assay: Plutella xylostella (diamond back moth) artificial diet test; conditions: 120 h, read-out: effect in at least one of the two categories (mortality or growth inhibition)
Summary of the method: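 Artificial diet treated with aqueous compound solutions made from DMSO stocks, dried, then infested with L2 larvae (10 to 15 per well). Mortality and growth inhibition scored versus untreated controls 5 days after infestation. Application rate 200 ppm.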

[3] = system: Diabrotica Balteata; assay: Diabrotica balteata (corn root worm) maize sprout test; conditions: 96 h, read-out: effect in at least one of the two categories (mortality or growth inhibition)
Summary of the method: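 Maize sprouts on agar were sprayed with aqueous test solutions made from 10′000 ppm DMSO stocks, dried, then infested with 6 to 10 L2 larvae per well. Mortality and growth inhibition versus untreated samples were assessed 4 days after infestation; application rate 200 ppm.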

[4] = system: Thrips tabaci; assay: Thrips tabaci (onion thrips) sunflower leaf disc test; conditions: foliar, 144 h
Method: Thrips tabaci (Onion Thrips):
Sunflower leaf discs were placed on agar in 24-well microtiter plates and sprayed with aqueous test solutions prepared from 10′000 ppm DMSO stock solutions. After drying the leaf discs were infested with a thrips population of mixed ages. The samples were assessed for mortality 6 days after infestation.

[5] = system: Tetranychus urticae; assay: Tetranychus urticae (two-spotted spider mite) bean leaf disc test; conditions: foliar, 192 h
Method: Tetranychus urticae (Two-Spotted Spider Mite):
Bean leaf discs on agar in 24-well microtiter plates were sprayed with aqueous test solutions prepared from 10′000 ppm DMSO stock solutions. After drying the leaf discs were infested with a mite population of mixed ages. The samples were assessed for mortality on mixed population (mobile stages) 8 days after infestation.

[6] = system: Myzus persicae; assay: Myzus persicae (green peach aphid) sunflower leaf disc test; conditions: foliar, 144 h
Method: Myzus persicae (Green Peach Aphid):
Sunflower leaf discs were placed on agar in a 24-well microtiter plate and sprayed with test solutions at an application rate of 200 ppm. After drying, the leaf discs were infested with an aphid population of mixed ages. After an incubation period of 6 days after treatment, samples were checked for mortality. The following compounds gave at least 80% mortality of Myzus persicae: […]

CC1=NOC(N(C=O)C(=O)c2ccc(C3=NO[C@@](c4cc(Br)cc(C(F)(F)F)c4)(C(F)(F)F)C3)cc2C)C1 (stereo partly drawn) [Compound A040, 4-[(5S)-5-[3-bromo-5-(trifluoromethyl)phenyl]-5-(trifluoromethyl)-4H-isoxazol-3-yl]-N-formyl-2-methyl-N-(3-methyl-4,5-dihydroisoxazol-5-yl)benzamide]
≥ 80%: percent control (mortality, anti-feedant effect or growth inhibition) at 200 ppm ([1]; application rate 200 ppm, cotton leaf discs, L1 larvae, 3 days after infestation) | percent effect (mortality or growth inhibition) at 200 ppm ([2]; application rate 200 ppm, artificial diet, L2 larvae, 5 days after infestation) | percent effect (mortality or growth inhibition) at 200 ppm ([3]; application rate 200 ppm, maize sprouts, L2 larvae, 4 days after infestation) | mortality at 200 ppm ([4]; application rate 200 ppm, sunflower leaf discs, population of mixed ages, 6 days after infestation, read-out: mortality) | mortality at 200 ppm ([5]; application rate 200 ppm, bean leaf discs, mixed population (mobile stages), 8 days after infestation, read-out: mortality) | mortality at 200 ppm ([6]; application rate 200 ppm, sunflower leaf discs, population of mixed ages, 6 days after treatment, read-out: mortality)

CCOC1=NOC(NC(=O)c2ccc(C3=NO[C@@](c4cc(Cl)c(F)c(Cl)c4)(C(F)(F)F)C3)cc2C)C1 (stereo partly drawn) [Compound A046]
≥ 80%: percent control (mortality, anti-feedant effect or growth inhibition) at 200 ppm [1] | percent effect (mortality or growth inhibition) at 200 ppm [2] | percent effect (mortality or growth inhibition) at 200 ppm [3] | mortality at 200 ppm [4] | mortality at 200 ppm [5] | mortality at 200 ppm [6]

CCOC1=NOC(N(C=O)C(=O)c2ccc(C3=NO[C@@](c4cc(Cl)cc(Cl)c4)(C(F)(F)F)C3)cc2C)C1 (stereo partly drawn) [Compound A133, 4-[(5S)-5-(3,5-dichlorophenyl)-5-(trifluoromethyl)-4H-isoxazol-3-yl]-N-(3-ethoxy-4,5-dihydroisoxazol-5-yl)-N-formyl-2-methyl-benzamide]
≥ 80%: percent control (mortality, anti-feedant effect or growth inhibition) at 200 ppm [1] | percent effect (mortality or growth inhibition) at 200 ppm [2] | percent effect (mortality or growth inhibition) at 200 ppm [3] | mortality at 200 ppm [4] | mortality at 200 ppm [5] | mortality at 200 ppm [6]

CCSC1=NOC(NC(=O)c2ccc(C3=NO[C@@](c4cc(Cl)c(Cl)c(Cl)c4)(C(F)(F)F)C3)cc2C)C1 (stereo partly drawn) [Compound A052]
≥ 80%: percent control (mortality, anti-feedant effect or growth inhibition) at 200 ppm [1] | percent effect (mortality or growth inhibition) at 200 ppm [2] | percent effect (mortality or growth inhibition) at 200 ppm [3] | mortality at 200 ppm [4] | mortality at 200 ppm [5] | mortality at 200 ppm [6]

Cc1cc(C2=NO[C@@](c3cc(Cl)c(Cl)c(Cl)c3)(C(F)(F)F)C2)ccc1C(=O)NC1CC(OCC(F)F)=NO1 (stereo partly drawn) [Compound A127, N-[3-(2,2-difluoroethoxy)-4,5-dihydroisoxazol-5-yl]-2-methyl-4-[(5S)-5-(3,4,5-trichlorophenyl)-5-(trifluoromethyl)-4H-isoxazol-3-yl]benzamide]
≥ 80%: percent control (mortality, anti-feedant effect or growth inhibition) at 200 ppm [1] | percent effect (mortality or growth inhibition) at 200 ppm [2] | percent effect (mortality or growth inhibition) at 200 ppm [3] | mortality at 200 ppm [4] | mortality at 200 ppm [5] | mortality at 200 ppm [6]

Cc1cc(C2=NO[C@@](c3cc(Cl)c(F)c(Cl)c3)(C(F)(F)F)C2)ccc1C(=O)NC1CC(OC(C)C)=NO1 (stereo partly drawn) [Compound A077]
≥ 80%: percent control (mortality, anti-feedant effect or growth inhibition) at 200 ppm [1] | percent effect (mortality or growth inhibition) at 200 ppm [2] | percent effect (mortality or growth inhibition) at 200 ppm [3] | mortality at 200 ppm [4] | mortality at 200 ppm [5] | mortality at 200 ppm [6]

CC1=NOC(N(C=O)C(=O)c2ccc(C3=NO[C@@](c4cc(Cl)cc(C(F)(F)F)c4)(C(F)(F)F)C3)cc2C)C1 (stereo partly drawn) [Compound A039, 4-[(5S)-5-[3-chloro-5-(trifluoromethyl)phenyl]-5-(trifluoromethyl)-4H-isoxazol-3-yl]-N-formyl-2-methyl-N-(3-methyl-4,5-dihydroisoxazol-5-yl)benzamide]
≥ 80%: percent control (mortality, anti-feedant effect or growth inhibition) at 200 ppm [1] | percent effect (mortality or growth inhibition) at 200 ppm [2] | percent effect (mortality or growth inhibition) at 200 ppm [3] | mortality at 200 ppm [4] | mortality at 200 ppm [5] | mortality at 200 ppm [6]

CCOC1=NOC(NC(=O)c2ccc(C3=NO[C@@](c4cc(Cl)cc(Cl)c4)(C(F)(F)F)C3)cc2Cl)C1 (stereo partly drawn) [Compound A063]
≥ 80%: percent control (mortality, anti-feedant effect or growth inhibition) at 200 ppm [1] | percent effect (mortality or growth inhibition) at 200 ppm [2] | percent effect (mortality or growth inhibition) at 200 ppm [3] | mortality at 200 ppm [4] | mortality at 200 ppm [5] | mortality at 200 ppm [6]

COC1=NOC(NC(=O)c2ccc(C3=NOC(c4cc(Cl)cc(Cl)c4)(C(F)(F)F)C3)cc2C)C1 (stereo not drawn) [Compound A126]
≥ 80%: percent control (mortality, anti-feedant effect or growth inhibition) at 200 ppm [1] | percent effect (mortality or growth inhibition) at 200 ppm [2] | percent effect (mortality or growth inhibition) at 200 ppm [3] | mortality at 200 ppm [4] | mortality at 200 ppm [5] | mortality at 200 ppm [6]

Cc1cc(C2=NO[C@@](c3cc(Cl)cc(Cl)c3)(C(F)(F)F)C2)ccc1C(=O)N[C@@H]1CC(C(F)(F)F)=NO1 (single isomer, unassigned) [Compound A154]
≥ 80%: percent control (mortality, anti-feedant effect or growth inhibition) at 200 ppm [1] | percent effect (mortality or growth inhibition) at 200 ppm [2] | percent effect (mortality or growth inhibition) at 200 ppm [3] | mortality at 200 ppm [4] | mortality at 200 ppm [5] | mortality at 200 ppm [6]

COC1=NO[C@H](NC(=O)c2ccc(C3=NO[C@@](c4cc(Cl)c(Cl)c(Cl)c4)(C(F)(F)F)C3)cc2C)C1 (single isomer, unassigned) [Compound A148]
≥ 80%: percent control (mortality, anti-feedant effect or growth inhibition) at 200 ppm [1] | percent effect (mortality or growth inhibition) at 200 ppm [2] | percent effect (mortality or growth inhibition) at 200 ppm [3] | mortality at 200 ppm [4] | mortality at 200 ppm [5] | mortality at 200 ppm [6]

Cc1cc(C2=NO[C@@](c3cc(Cl)c(F)c(Cl)c3)(C(F)(F)F)C2)ccc1C(=O)NC1CC(OCC(F)(F)F)=NO1 (stereo partly drawn) [Compound A103]
≥ 80%: percent control (mortality, anti-feedant effect or growth inhibition) at 200 ppm [1] | percent effect (mortality or growth inhibition) at 200 ppm [2] | percent effect (mortality or growth inhibition) at 200 ppm [3] | mortality at 200 ppm [4] | mortality at 200 ppm [5] | mortality at 200 ppm [6]

CC1=NOC(NC(=O)c2ccc(C3=NO[C@@](c4cc(Cl)cc(Cl)c4)(C(F)(F)F)C3)cc2C)C1 (stereo partly drawn) [Compound A141]
≥ 80%: percent control (mortality, anti-feedant effect or growth inhibition) at 200 ppm [1] | percent effect (mortality or growth inhibition) at 200 ppm [2] | percent effect (mortality or growth inhibition) at 200 ppm [3] | mortality at 200 ppm [4] | mortality at 200 ppm [5] | mortality at 200 ppm [6]

Cc1cc(C2=NO[C@@](c3cc(Cl)c(F)c(Cl)c3)(C(F)(F)F)C2)ccc1C(=O)NC1CC(CO)=NO1 (stereo partly drawn) [Compound A087, 4-[(5S)-5-(3,5-dichloro-4-fluoro-phenyl)-5-(trifluoromethyl)-4H-isoxazol-3-yl]-N-[3-(hydroxymethyl)-4,5-dihydroisoxazol-5-yl]-2-methyl-benzamide]
≥ 80%: percent control (mortality, anti-feedant effect or growth inhibition) at 200 ppm [1] | percent effect (mortality or growth inhibition) at 200 ppm [2] | percent effect (mortality or growth inhibition) at 200 ppm [3] | mortality at 200 ppm [4] | mortality at 200 ppm [5] | mortality at 200 ppm [6]

Cc1cc(C2=NO[C@@](c3cc(Cl)c(F)c(Cl)c3)(C(F)(F)F)C2)ccc1C(=O)N[C@@H]1CC(Br)=NO1 (single isomer, unassigned) [Compound A147]
≥ 80%: percent control (mortality, anti-feedant effect or growth inhibition) at 200 ppm [1] | percent effect (mortality or growth inhibition) at 200 ppm [2] | percent effect (mortality or growth inhibition) at 200 ppm [3] | mortality at 200 ppm [4] | mortality at 200 ppm [5] | mortality at 200 ppm [6]
